Measurements as given in the NIST ThermoML archive (doi:10.1021/je200793z).

Key:
[1] = xn = mol fraction of the nth substance listed

CC(C)CCO [3-methylbutan-1-ol]
Details | surface tension liquid-gas [mN/m]
293.15 K | 24.5
298.15 K | 24.15
303.15 K | 23.8
308.15 K | 23.36
313.15 K | 22.96
318.15 K | 22.57
323.15 K | 22.17

CC(C)CCO [3-methylbutan-1-ol] + CCO
surface tension liquid-gas [mN/m], [1]
Details | 293.15 K | 298.15 K | 303.15 K | 308.15 K | 313.15 K | 318.15 K | 323.15 K
x1 = 0.0268 | 22.56 | 22.09 | 21.7 | 21.35 | 20.95 | 20.56 | 20.17
x1 = 0.0549 | 22.78 | 22.32 | 21.94 | 21.59 | 21.19 | 20.81 | 20.44
x1 = 0.0845 | 22.98 | 22.54 | 22.17 | 21.81 | 21.41 | 21.04 | 20.67
x1 = 0.1156 | 23.17 | 22.73 | 22.36 | 22.01 | 21.62 | 21.24 | 20.87
x1 = 0.1484 | 23.33 | 22.9 | 22.53 | 22.17 | 21.78 | 21.41 | 21.04
x1 = 0.183 | 23.49 | 23.05 | 22.68 | 22.32 | 21.92 | 21.55 | 21.17
x1 = 0.2584 | 23.75 | 23.32 | 22.95 | 22.58 | 22.18 | 21.8 | 21.42
x1 = 0.3433 | 23.96 | 23.54 | 23.17 | 22.79 | 22.39 | 22.01 | 21.63
x1 = 0.4395 | 24.13 | 23.72 | 23.36 | 22.97 | 22.57 | 22.19 | 21.81
x1 = 0.5495 | 24.25 | 23.85 | 23.49 | 23.1 | 22.7 | 22.33 | 21.95
x1 = 0.6765 | 24.34 | 23.96 | 23.61 | 23.21 | 22.82 | 22.44 | 22.06
x1 = 0.8247 | 24.41 | 24.05 | 23.71 | 23.29 | 22.89 | 22.51 | 22.12
x1 = 1 | 24.5 | 24.15 | 23.8 | 23.36 | 22.96 | 22.57 | 22.17

CCO [ethanol]
Details | surface tension liquid-gas [mN/m]
293.15 K | 22.31
298.15 K | 21.82
303.15 K | 21.41
308.15 K | 21.04
313.15 K | 20.62
318.15 K | 20.22
323.15 K | 19.82

CCO [ethanol] + CC(C)CCO
[1], x2 = 0
Details | surface tension liquid-gas [mN/m]
293.15 K | 22.31
298.15 K | 21.82
303.15 K | 21.41
308.15 K | 21.04
313.15 K | 20.62
318.15 K | 20.22
323.15 K | 19.82

CCO [ethanol] + CCC(C)(C)O
[1], x2 = 0
Details | surface tension liquid-gas [mN/m]
293.15 K | 22.31
298.15 K | 21.82
303.15 K | 21.41
308.15 K | 21.04
313.15 K | 20.62
318.15 K | 20.22
323.15 K | 19.82

CCO [ethanol] + CCC(C)CO
[1], x2 = 0
Details | surface tension liquid-gas [mN/m]
293.15 K | 22.31
298.15 K | 21.82
303.15 K | 21.41
308.15 K | 21.04
313.15 K | 20.62
318.15 K | 20.22
323.15 K | 19.82
